The values that follow come from PubChem BioAssay (NCI).

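Growth conditions: 96-well plates. Treatment: test compound, 48 hours, 5 concentrations. Analysis: linear interpolation between bracketing concentrations; unreached endpoints set to highest concentration. Abbreviation: GI50, concentration required for 50% inhibition of growth. TGI is the concentration that stops growth completely.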 Where a SMILES comes first, the peptide text is derived from it. [ ]: non-standard residue; d: D form. The star is where a group is joined. ξ: configuration not given here. ξF = NC(Cc1ccccc1)C(=O)O; Cbz = O=C(OCc1ccccc1)*

For the first assay, the system named is UACC-62 melanoma. Briefly: NCI anticancer screen, dose series, 48 h.
The compound `Cc1cc(N(CCC#N)CCC#N)ccc1/C(N=Nc1ccccc1)=N\NC(=O)c1cc(Cl)ccc1O` yielded a TGI of 27.7 µM.

As for `COC(=O)[C@@H]1CO[C@H](C(C)(C)C)N1C(=O)N1C=CC(=O)C[C@H]1C`, the TGI was > 100 µM.

In turn, `COc1cc(C2c3cc4c(cc3OC(NN)C2C)OCO4)cc(OC)c1O` (centres undefined) gave a TGI of 18.9 µM.

With `Cc1ccc(N=N/C(=N/NC(=O)c2ccccc2)c2ccc(N(CCC#N)CCC#N)cc2C)cc1`, the TGI was > 100 µM.

The compound `Cc1ccc(S[C@@](C=O)(NC(=O)OCc2ccccc2)C(F)(F)F)cc1` showed a TGI of 40.4 µM.

The compound `COc1ccc(CCCCNCc2cccc(CNCCCCc3ccc(OC)cc3)c2)cc1` showed a TGI of 3.55 µM.

On to `CC(SC(=S)N1CCOCC1)C(=O)Nc1nnc(-c2ccc(Cl)cc2)o1` (centres undefined), for which the TGI was > 100 µM.

On to `CC1(C)O[C@@H]2[C@@H](COC(C)(C)O[C@H]2C2SCCCS2)O1`, for which the TGI was > 100 µM.

Regarding `N#Cc1sc2nc3ccccc3n2c1N`, the TGI is > 100 µM.

On to `O=C(O)CCCc1ccc2c(c1)CC1(C2)Cc2cc3c(cc2C1)CCCC3`, for which the TGI is > 100 µM.

With `Cc1c(C)c2c(c(N)c1C#N)C(=O)N(Cc1ccc(S(N)(=O)=O)cc1)C2=O`, the TGI is > 100 µM.

For `CN(NC1=NCCO1)c1ccc2ccccc2c1`, the TGI was > 100 µM.

`COC(=O)/C=C/c1ccc(OP(=O)(O)O)c(OC)c1`: the TGI was > 100 µM.

In turn, `CCOC(=O)C1(C/C=C\CBr)CCCC1=O` (centres undefined) had a TGI of 39.8 µM.

With `Cc1cc(O)c(/C=N/C(N)=S)c(=O)o1`, the TGI is > 100 µM.

Regarding `Cc1[nH]n(-c2nc3c(c(=O)[nH]2)CCCC3)c(=O)c1CCO`, the TGI was > 100 µM.

As for `O=C(NCCN(CCNC(=O)c1cccc(O)c1O)CCNC(=O)c1cccc(O)c1O)c1cccc(O)c1O`, the TGI was 48 µM.

As for `COc1cc2nc(Cl)nc(NS(=O)(=O)c3cc4ccccc4s3)c2cc1OC`, the TGI came out at 39.3 µM.

Regarding `COC(=O)/C=C(\C(=O)OC)c1cc(C)c2cc(C(C)C)ccc(C)c1-2`, the TGI was > 100 µM.

Regarding `CC(C)(C)OC(=O)N(CCCCNC(=O)C(F)(F)F)CCCNC(=O)C(F)(F)F`, the TGI was > 100 µM.

Take `C=CCON(C(=O)OC(C)(C)C)C(C)(C)C`: the TGI is > 100 µM.

For another assay, the system named is K-562 leukemia. Put plainly: NCI anticancer screen, dose series, 48 h.
For the compound `COC1(OC)CCc2c(sc3ncnc(Nc4cccc(Br)c4)c23)C1`, the TGI was > 100 µM.

For the compound `C=CCC(CCC(C)=O)(C(=O)OCC)C(=O)OCC`, the TGI is > 100 µM.

For the compound `N#Cc1ccccc1OCCOc1ccccc1C#N`, the TGI was > 100 µM.

With `CCOC(=O)c1cn(CC)c(=O)n2c1nc1ccccc12`, the TGI is > 100 µM.

On to `O=[N+]([O-])c1ccc(/C=N/Nc2nc3ccccc3[nH]2)o1`, for which the TGI turned out to be 32.1 µM.

Turning to `NNc1nnc(CCCCCCCCc2nnc(NN)n2N)n1N`, the TGI is > 100 µM.

Take `COc1ccc2nc3c(c(N)c2c1)C1CCC3C1(C)C` (centres undefined): the TGI was > 100 µM.

For `Oc1c(N2CCCCC2)cc(-c2cc(N3CCCCC3)c(O)c3ccccc23)c2ccccc12`, the TGI is > 100 µM.

For `C[C@H]1CC[C@@]2(OC1)O[C@H]1C[C@H]3[C@@H]4CC[C@@H]5C[C@@H](OC6OC(CO)C(O)C(O)C6OC6OC(CO)C(O)C(O)C6O)CC[C@]5(C)[C@H]4CC[C@]3(C)[C@H]1[C@@H]2C` (some centres undefined), the TGI was determined as 4.33 µM.

`O=C(NCCC1CNc2ccccc21)OCc1ccccc1` (centres undefined): the TGI is > 100 µM.

Turning to `CSc1nncc(-c2cc3c(c(SC)n2)CCCC3)n1`, the TGI was > 100 µM.

As to `Cc1nc2sc3cccc(Cl)c3n2c(=O)c1N=Nc1ccc(Cl)cc1`, the TGI is > 100 µM.

For the compound `Cn1c2ccccc2c(=O)c2c(O)cc3c(c21)C1OCC(C)(O)C1O3` (centres undefined), the TGI was > 100 µM.

As for `Cc1cc(N(CCC#N)CCC#N)ccc1/C(N=Nc1ccccc1)=N\NC(=O)c1cc(Cl)ccc1O`, the TGI is > 100 µM.

As for `COC(=O)[C@@H]1CO[C@H](C(C)(C)C)N1C(=O)N1C=CC(=O)C[C@H]1C`, the TGI was > 100 µM.

Consider `Cn1c(CNc2ccc(-c3n[nH]c(=S)n3C)cc2)n[nH]c1=S`, for which the TGI was > 100 µM.

`COc1cc(C2c3cc4c(cc3OC(NN)C2C)OCO4)cc(OC)c1O` (centres undefined) displayed a TGI of 12.6 µM.

`Cc1ccc(N=N/C(=N/NC(=O)c2ccccc2)c2ccc(N(CCC#N)CCC#N)cc2C)cc1`: the TGI was > 100 µM.

Take `Cc1ccc(S[C@@](C=O)(NC(=O)OCc2ccccc2)C(F)(F)F)cc1`: the TGI is > 100 µM.

Regarding `CCOC(=O)CNC(=O)C(Cc1ccccc1)NC(=O)OCc1ccccc1` (centres undefined) (Cbz-[ξF]-Gly-OEt), the TGI was > 100 µM.

With `CC1(C)O[C@@H]2[C@@H](COC(C)(C)O[C@H]2C2SCCCS2)O1`, the TGI is > 100 µM.

`O=C(O)CCCc1ccc2c(c1)CC1(C2)Cc2cc3c(cc2C1)CCCC3` gave a TGI of 25.9 µM.

Regarding `Cc1c(C)c2c(c(N)c1C#N)C(=O)N(Cc1ccc(S(N)(=O)=O)cc1)C2=O`, the TGI was > 100 µM.

Compound `CN(NC1=NCCO1)c1ccc2ccccc2c1` registered a TGI of 66.1 µM.

Regarding `Cc1[nH]n(-c2nc3c(c(=O)[nH]2)CCCC3)c(=O)c1CCO`, the TGI was > 100 µM.

With `O=C(NCCN(CCNC(=O)c1cccc(O)c1O)CCNC(=O)c1cccc(O)c1O)c1cccc(O)c1O`, the TGI is > 100 µM.

The compound `COc1cc2nc(Cl)nc(NS(=O)(=O)c3cc4ccccc4s3)c2cc1OC` displayed a TGI of 52.6 µM.

For `COC(=O)/C=C(\C(=O)OC)c1cc(C)c2cc(C(C)C)ccc(C)c1-2`, the TGI was > 100 µM.

Regarding `CC(C)(C)OC(=O)N(CCCCNC(=O)C(F)(F)F)CCCNC(=O)C(F)(F)F`, the TGI was > 100 µM.

As for `C=CCON(C(=O)OC(C)(C)C)C(C)(C)C`, the TGI is > 100 µM.

On to `COc1cc([C@@H]2c3cc4c(cc3[C@@H](Nc3ccc(NC(=O)c5cc([N+](=O)[O-])cn5C)cc3)[C@H]3COC(=O)[C@H]23)OCO4)cc(OC)c1O`, for which the GI50 is 0.293 µM and the TGI is > 100 µM.

The next assay deals with MOLT-4 leukemia. Put plainly: NCI anticancer screen, dose series, 48 h.
`COC1(OC)CCc2c(sc3ncnc(Nc4cccc(Br)c4)c23)C1` showed a TGI of 41.5 µM.

For `C=CCC(CCC(C)=O)(C(=O)OCC)C(=O)OCC`, the TGI was > 100 µM.

In the case of `Clc1ccc(C=Nc2ccc(Oc3ccc(Cl)cc3)c(Cl)c2)cc1`, the TGI is > 100 µM.

On to `N#Cc1ccccc1OCCOc1ccccc1C#N`, for which the TGI was > 100 µM.

Regarding `CCOC(=O)c1cn(CC)c(=O)n2c1nc1ccccc12`, the TGI is > 100 µM.

`O=[N+]([O-])c1ccc(/C=N/Nc2nc3ccccc3[nH]2)o1` had a TGI of 27.3 µM.
